Entries after “also recorded” stand apart in the source; their conditions may differ. Where two headings read alike, the source gives them in different places.
Experiments:
[1] = test system: experimental allergic encephalomyelitis (EAE), PLP immunization; assay: Clinical severity of PLP-induced EAE in SWXJ-14 mice; assay type: in vivo
Experimental: FIG. 2. Effect of daily administration of c-PTIO (carboxy-PTIO) on EAE in SWXJ-14 mice. EAE was induced in SWJX-14 mice by two subcutaneous immunizations (d.0 and d.7) of […] PLP in CFA over two injection sites. Mice (N=3) were treated beginning on day 5 post-immunization with 2 mg/mouse c-PTIO […] i.p. and was continued until day 16 post-immunization (day 0 being the day of first immunization). Mean severity scores were graded as detailed in Table 1.
FIG. 4. Effect of D609 on the development of EAE in SWXJ-14 mice. SWXJ-mice were immunized with PLP as detailed for FIG. 2. Mice (n=2) were treated i.p. with 1 mg/mouse D609 from day 5 through day 14 post-immunization. Mean severity scores were graded as detailed in Table 1.
FIG. 12. Effect of the administration of various doses of uric acid on EAE in SWXJ-14 mice. EAE was induced in SWXJ-14 mice by two subcutaneous immunizations (d.0 and 7) of […] PLP in CFA over two injection sites. Mice (n=5) were treated once daily, beginning on day 5 post-immunization, with the indicated doses of uric acid. Mean severity scores were graded as detailed in Table 1.
(§1) Induction of EAE in rats by adoptive transfer of MBP-specific T cells or in SJL or SWXJ-14 mice by immunization with MBP or PLP 139-151, a peptide derived from […] [8], results in variable disease. We have scored the clinical systems of EAE as tabulated below.
(§2) Severity scores and symptoms of Experimental Allergic
(§3) 1 piloerection, tail weakness
(§4) 3 hind limb weakness/paralysis
(§5) 4 hind and forelimb paralysis
(§6) In FIG. 1, EAE was elicited in 11 week old female Lewis rats by the adoptive transfer of 20×10^6 cells of the MBP-specific line 5HGBP.G5 activated by stimulation with MBP and syngeneic APC 48 hours previously and NO levels measured 5 days after transfer. In SWXJ-14 mice, EAE was triggered by two subcutaneous immunizations (d.0 and 7) with 100 μg PLP in CFA over two injection sites, and NO levels measured 18 days later. Results expressed represent the mean values obtained from a minimum of 4 animals. Peak severity of the symptoms of EAE ranged from 2-3 for the rats and 4-5 for the mice. NO was semi-quantitated using spin trapping with DETC and EPR-spectroscopy as described previously.
(§7) Clinical symptoms manifest as an ascending paralysis approximately 13 days after immunization and the disease rapidly progresses to its fatal endpoint by day 16-20. […] NO levels in the brains and spinal cords of animals treated with a single daily dose of PTIO were semi-quantitated by spin trapping and EPR spectroscopy on day 17 after immunization, one day after treatment was terminated. […] We expect that the removal of NO by PTIO should not necessarily interfere with the induction of the response responsible for NO production and that as the supplied PTIO is used up NO levels should rapidly return to control values.
(§8) In contrast to SJL mice, SWX mice immunized with PLP undergo a progressive,often fatal form of EAE. Clinical symptoms manifest as an ascending paralysis approximately 13 days after immunization and the disease rapidly progresses to its fatal endpoint by days 16-20. […] We conclude that the amount of carboxy-PTIO we administered, especially considering the short in vivo half life of the compound, was only sufficient to delay the onset of the EAE in the SWXJ-14 mouse.
NO is not universally considered to be a molecule with significant in vivo toxicity and peroxynitrite is thought to be the more toxic molecule produced by activated inflammatory cells resulting from the interaction of NO and superoxide. We would henceforth expect that removal of NO would reduce peroxynitrite formation. To determine whether NO or peroxynitrite is more likely to be ultimately responsible for clinical disease in EAE we have performed a series of experiments using uric acid, a known scavenger of peroxynitrite, to treat EAE induced in SWXJ-14 mice by immunization with PLP.

NF-κB [2] = assay: Activation of transcription factor NF-κB in A549 cells; assay type: cell-based; details: 50 μg/ml, human A549 cells
[3] = test system: phosphatidylcholine-specific phospholipase C (PC-PLC); details: via blocking activation of PC-PLC [16]; cited from earlier work
A549 cells = assay: Nitrite production by activated A549 cells (Griess reaction); assay type: cell-based, human; details: 50 μg/ml; IL-1β, γIFN, TNFα activated
Experimental: FIG. 5. […] The accumulation of nitrite over time was measured in the presence and absence of D609. Human A549 cells were activated with IL-1β (100 units/ml), γIFN (500 units/ml) and TNFα (10 ng/ml), and the accumulation of nitrite over time was measured using the Griess reaction. The concentration of nitrite was calculated using a standard solution of nitrite in culture media.
We have employed the human lung carcinoma cell line A549 (ATCC) and, as for comparison, the mouse monocyte-macrophage cell line RAW 264.7 (ATCC) as producers of NO. Treatment of RAW 264.7 cells with 1 μg/ml of LPS or A549 cells with IL-1β (100 units/ml), γIFN (500 units/ml), and TNFα (10 ng/ml) stimulates the production of NO which can be detected by the accumulation of nitrite in culture supernatants. Using these methods of stimulation, RAW cells produced up to 100 μM of nitrite during 24 hours of culture while the A549 cells generally produced roughly 10 fold less nitrite in our experiments.

iNOS gene [4] = assay: Transcriptional activation of the iNOS gene in A549 cells (gel-shift assays); assay type: cell-based; details: 50 μg/ml, human A549 cells
iNOS gene [5] = assay: Transcriptional activation of the iNOS gene in RAW 264.7 cells (gel-shift assays); assay type: cell-based; details: 50 μg/ml, mouse RAW 264.7 cells
NF-κB [6] = assay: Activation of transcription factor NF-κB in RAW 264.7 cells; assay type: cell-based; details: 50 μg/ml, mouse RAW 264.7 cells
[7] = rats, i.v. or i.p., estimated; cited from earlier work
[8] = mice, i.v. or i.p., estimated; cited from earlier work
[9] = test system: experimental allergic encephalomyelitis (EAE), MBP-specific T cell transfer; assay: Clinical severity of adoptive transfer EAE in Lewis rats; assay type: in vivo; details: EAE mediated by T cell transfer
From the text: as §1
______________________________________
as §2, §3, §4, §5, §6
Rats were injected i.v. with 20×10^6 MBP-specific CD4 T cells activated in vitro. Two days later the animals were treated with a single dose of either PTIO (20 mg) or a mixture of PTIO (20 mg), indomethacin (1 mg), and allopurinol (13 mg). Treatment was continued on a daily basis until day 4 and animals were sacrificed for NO measurement the following day.

[10] = test system: experimental allergic encephalomyelitis (EAE), immunization-elicited; assay: Clinical severity of immunization-elicited EAE in SJL mice; assay type: in vivo
From the text: as §1, §2, §3, §4, §5
(§9) SJL mice are immunized subcutaneously with pMBP in adjuvant to induce EAE, from which they often recover. Commencing ten days post-immunization, groups of mice (n=6) were treated once daily with 2 mg of either PTIO or carboxy-PTIO intraperitoneally and observed for clinical signs of EAE which were graded as detailed in Table 1. […] At 18 days […], NO determinations were performed in several mice from each group.

nitric oxide (NO) [11] = assay: NO levels in brain and spinal cord of SWXJ-14 mice with EAE (spin trapping with DETC, EPR); assay type: in vivo
Experimental: FIG. 3. Effect of daily administration of c-PTIO on NO levels in the brain and spinal cord of SWXJ-14 mice immunized with PLP. SWXJ-14 mice were immunized as described below for FIG. 1. Beginning 4 days post immunization, mice (n=7) were treated with 2 mg c-PTIO given i.p. until 16 days post-immunization. Mean severity scores were graded as detailed in Table 1. Mean nitric oxide levels in brain and spinal cord were semi-quantitated using spin-trapping with DETC and EPR spectroscopy at 17 days post-immunization as described elsewhere. (For brain or spinal cord results are represented as follows: Left hand column: untreated. Center column: treated with c-PTIO. Right hand column: no EAE control)
FIG. 13. Effect of the administration of uric acid on brain and spinal cord NO levels and the clinical severity of EAE in SWXJ-14 mice. SWXJ-14 mice were immunized with PLP in CFA as described for FIG. 12 and treated once daily with the indicated doses of uric acid i.p. At day 16 post-immunization the animals were euthanized and NO levels in brain and spinal cord assessed as detailed for FIG. 3. Results are for individual mice. Each central white column represents the spinal cord NO level. The black column to the left of a white column represents the clinical severity score. The cross hatched column to the right of a white column represents the brain NO level.
as §6, §7, §8
At 16 days after immunization, several mice from each group were euthanized so that NO levels in their brains and spinal cords could be measured using spin-trapping and EPR spectroscopy.

nitric oxide (NO) [12] = assay: NO levels in spinal cord and brain of SJL mice with EAE; assay type: in vivo
Experimental: as §9

Water solubility = assay type: physicochemical
[13] = test system: experimental allergic encephalomyelitis (EAE), PLP immunization; assay: Survival of SWXJ-14 mice with EAE; assay type: in vivo
Experimental: FIG. 14. Comparison of the survival of SWXJ-14 mice with EAE treated with PTIO and uric acid. SWXJ-mice were immunized with PLP in CFA as described for FIG. 12 and treated once daily with a 2 mg dose of uric acid or PTIO i.p. from day 5 to day 13, followed by two daily doses on day 14 and three daily doses thereafterward.
To more directly compare the action of PTIO and uric acid in EAE we have administered each of these agents in parallel to PLP-immunized SWXJ-14 mice. In these experiments the mice were immunized with PLP and treated with increasing doses of PTIO or uric acid beginning at day 5 after immunization.

[14] = day 17 after immunization, one day after treatment ended
[15] = single daily dose of 100 mg/kg, day 17

## S=C(S)OC1CC2CC1C1CCCC21 (stereo not shown) [D609, tricyclodecan-9-yl-xanthogenate]
[1]; 1 mg daily i.p., day 5-14
  Onset of clinical symptoms of EAE (FIG. 4): delays the onset of the clinical symptoms of EAE
NF-κB [2]
  Activation of transcription factor NF-κB: inhibits
[3]
  Induction of iNOS: inhibits the induction of iNOS by blocking the activation of phosphatidylcholine-specific phospholipase C (PC-PLC)
A549 cells
  Nitrite production by A549 cells (FIG. 5): completely inhibited nitrite production; also recorded: inhibits nitrite production
iNOS gene [4]
  Transcriptional activation of the iNOS gene: inhibits the transcriptional activation of the iNOS gene
iNOS gene [5]
  Transcriptional activation of the iNOS gene: inhibits the transcriptional activation of the iNOS gene
NF-κB [6]
  Activation of transcription factor NF-κB: inhibits

## CC1(C)N([O])C(c2ccc(C(=O)O)cc2)=[N+]([O-])C1(C)C [carboxy-PTIO, 2-(4-carboxyphenyl)-4,4,5,5-tetramethylimidazoline-1-oxyl-3-oxide]
[7]
  Biological half-life in blood: less than five
[8]
  Biological half-life in blood: less than five
[1]; carboxy-PTIO administration
  Overall NO production and therapeutic effect in SWXJ-14 mice: limited NO production to the spinal cord and had a clear therapeutic effect
[1]; single daily dose of 100 mg/kg
  Onset and severity of clinical symptoms of EAE (FIG. 9): delays the onset and reduces the severity of the clinical symptoms of EAE
[1]; two daily doses of 100 mg/kg
  Onset and severity of clinical symptoms of EAE (FIG. 2): delays the onset and reduces the severity of the clinical symptoms of EAE
[1]; two daily doses of approximately 2 mg
  Clinical course of EAE (FIG. 11): dramatically improves the clinical course of EAE by comparison with a single daily dose
[9]
  Treatment of EAE mediated by T cell transfer: successfully treated
[10]; 2 mg once daily i.p. from day 10 post-immunization, n=6
  Onset and severity of EAE (FIG. 7): delayed onset of disease and somewhat lessened severity by comparison with untreated animals
[10]; SJL mice, i.p. administration
  Clinical symptoms of EAE: forestall the appearance of clinical symptoms of EAE
[10]; SJL mouse - immunization EAE, severity score 1-5, Table 2
  Clinical severity: 0.7
Nitric oxide (NO) [11]; [14]
  NO levels in brain (FIG. 3): low levels of NO in brain tissue compared to untreated PLP-immunized controls
  NO levels in spinal cord (FIG. 3): somewhat less than the spinal cord NO levels detected in the surviving untreated animals
Nitric oxide (NO) [11]; [15]
  NO induction in brain (FIG. 10): prevented the induction of NO in brain
  NO levels in spinal cord (FIG. 10): somewhat less than the spinal cord NO levels detected in the surviving untreated animals
Nitric oxide (NO) [12]; 2 mg once daily i.p., day 18
  Brain NO increase (FIG. 8): also inhibited
  NO levels in spinal cord (FIG. 8): lower in the spinal cords
Nitric oxide (NO) [12]; SJL mice, i.p. administration
  Levels of NO in spinal cord: reduce levels of NO detected in spinal cord
Nitric oxide (NO) [12]; SJL mouse - immunization EAE, Table 2
  NO-spinal cord: 1.4 mM
Water solubility
  Water solubility: water soluble

## Oc1nc(O)c2[nH]c(O)nc2n1 [uric acid, 2,6,8-trihydroxypurine]
[1]; high dose of uric acid
  Mice remaining healthy (FIG. 12): The majority of the mice treated with a high dose of uric acid remained healthy throughout the length of the experiment
[1]; uric acid once daily from day 5 post-immunization
  Onset and severity of clinical symptoms of EAE (FIG. 12): delays the onset and severity of the clinical symptoms of EAE in these animals in a dose dependent fashion
[13]; at termination of the experiment
  Improvement in clinical signs of surviving mice (FIG. 14): a number were actually beginning to show some improvement in the clinical signs of their disease
[13]; several days after day 18, 2 mg i.p. once daily day 5-13, two doses day 14, then three daily
  Mice still alive (FIG. 14): 80%
Nitric oxide (NO) [11]; day 16, mice that failed to show symptoms of EAE
  NO levels in spinal cord and brain (FIG. 13): significant levels of NO were detected in spinal cord and brain

From patent US5872124A, “Treatment of diseases of the central nervous system using uric acid as a scavenger of peroxynitrite” (Thomas Jefferson University, priority 1996, dated 1999)
